Test results: patent publication US20100204128A1, “NOVEL PEPTIDES” (SANARE INVESTMENT AS, priority 2007, published 2010)
Several values for one entry are separate records, joined by “and”; a condition that tells them apart may be missing. Equal entries are not always repeated.

Key:
Type in all cases: cell-based
Settings in all cases: for fluorescent readings: 24 hours, duplicate wells
[1] = tested on: TMX2-28 cells; assay: AlmarBlue fluorescence cell growth test, TMX2-28 cells
Description: With that, the 5×10^−3M mixture contains about 0.42×10^−3M of each peptide. Furthermore, mixtures containing equal volumes of peptides SEQ ID NO:2-SEQ ID NO:7, SEQ ID NO:10 and SEQ ID NO:11 were also prepared (equal volumes of said re-feed media) to yield the following final six concentrations: […] With that, the 5×10^−3M mixture contains about […].
(§1) MCF-7 and T47D cells were seeded into 96-well plates at a density of 10,000 cells per well in 90 μL of appropriate culture medium. TMX2-28 cells were seeded into 96-well plates at a density of 5,000 cells per well in 90 μL of appropriate culture medium. Plates were placed in a 37° C., 5% CO2 incubator and cells were allowed to attach to the bottom of the well for 24 hours after which 10 μL of the appropriate refeed medium was added. Each concentration was tested in duplicate in each cell line. […] Cells were then incubated for 24 hours. Subsequently 10 μL of AlmarBlue (Biosource) was added to each well. After three hours, the fluorescence was detected using a Packard Instrument Plate Reader with 535/20 excitation and 590/20 emission filters.

[2] = tested on: MCF-7 cells; assay: AlmarBlue fluorescence cell growth test, MCF-7 cells
Description: (§2) Re-feed media were prepared to yield the following final six concentrations of each of the 12 peptides: 5×10^−3, 5×10^−4, 5×10^−5, 5×10^−6, 5×10^−7, and 5×10^−8M. […] With that, the 5×10^−3M mixture contains about 0.42×10^−3M of each peptide. […] With that, the 5×10^−3M mixture contains about 0.42×10^−3M of each of said 8 peptides.
as §1

[3] = tested on: T47D cells; assay: AlmarBlue fluorescence cell growth test, T47D cells
Description: as §2, §1

[4] = 5 × 10^−4 M (mixtures: total concentration), decrease vs DC5 = reduced cell growth
[5] = 5 × 10^−5 M (mixtures: total concentration)
[6] = 5 × 10^−6 M (mixtures: total concentration)
[7] = 5 × 10^−7 M (mixtures: total concentration)
[8] = 5 × 10^−8 M (mixtures: total concentration)
[9] = 5 × 10^−9 M (mixtures: total concentration)

Molecule | fluorescent readings [1, 4] | fluorescent readings [1, 5] | fluorescent readings [1, 6] | fluorescent readings [1, 7] | fluorescent readings [1, 8] | fluorescent readings [1, 9] | fluorescent readings [2, 4] | fluorescent readings [2, 5] | fluorescent readings [2, 6] | fluorescent readings [2, 7] | fluorescent readings [2, 8] | fluorescent readings [2, 9] | fluorescent readings [3, 4] | fluorescent readings [3, 5] | fluorescent readings [3, 6] | fluorescent readings [3, 7] | fluorescent readings [3, 8] | fluorescent readings [3, 9] | further results
SEQIDNO9: synthesised peptide identified in the 10 kDa blood fraction after acupuncture; sequence not printed in the text (SSNNGCMRDPTLYRCK; Derived from human blood sample) | 71608 and 70176 | 69255 and 69328 | 69234 and 68280 | 67663 and 69155 | 67229 and 67807 | 68009 and 65131 | 67879 and 68176 | 65563 and 69218 | 65046 and 65931 | 63071 and 65962 | 57728 and 62231 | 62556 and 61065 | 67492 and 77427 | 63181 and 64535 | 62848 and 62359 | 63130 and 68689 | 60146 and 64467 | 65094 and 67070 | –
SEQIDNO3: synthesised peptide identified in the 10 kDa blood fraction after acupuncture; sequence not printed in the text (KTFTVTEGSMAGGAWGRL; Derived from human blood sample) | 68963 and 67344 | 69237 and 66454 | 71007 and 67496 | 72558 and 69648 | 72686 and 69197 | 69066 and 70821 | 63831 and 65178 | 64053 and 64928 | 64217 and 64899 | 62452 and 66233 | 61563 and 63132 | 62603 and 61621 | 61359 and 61718 | 66736 and 61724 | 65079 and 58554 | 64329 and 59141 | 61766 and 61031 | 59482 and 59451 | –
SEQIDNO7: synthesised peptide identified in the 10 kDa blood fraction after acupuncture; sequence not printed in the text (RMSIQCDVWRSKFLASRV; Derived from human blood sample) | 58887 and 60090 | 64931 and 66366 | 68010 and 67591 | 68325 and 70586 | 67109 and 70471 | 62010 and 66328 | 64171 and 62704 | 67257 and 64433 | 66311 and 66105 | 63995 and 67019 | 65755 and 66292 | 60589 and 62763 | 62688 and 60767 | 68041 and 64777 | 66479 and 60908 | 65388 and 63864 | 64353 and 63685 | 64124 and 63134 | –
SEQIDNO1: synthesised peptide identified in the 10 kDa blood fraction after acupuncture; sequence not printed in the text (ASPVAPLDPLLKYGRGQPVSSASGTTTDLGQ; Derived from human blood sample) | 74129 and 72743 | 73649 and 71774 | 72975 and 71640 | 74503 and 75697 | 75445 and 77164 | 71409 and 71588 | 69131 and 67176 | 65474 and 66009 | 65860 and 64140 | 62613 and 62686 | 63693 and 62463 | 62279 and 60719 | 65814 and 66151 | 64794 and 65757 | 63241 and 63091 | 63036 and 62709 | 62633 and 62689 | 55767 and 59593 | –
SEQIDNO5: synthesised peptide identified in the 10 kDa blood fraction after acupuncture; sequence not printed in the text (REVQGAFLRFMACLLKGYRV; Derived from human blood sample) | 27056 and 29836 | 62564 and 67140 | 67405 and 69619 | 69438 and 69605 | 70141 and 70591 | 69376 and 67302 | 56679 and 54497 | 61089 and 62458 | 61618 and 65571 | 61677 and 66372 | 62738 and 64281 | 57537 and 60120 | 54287 and 54068 | 61500 and 65566 | 63089 and 64735 | 64043 and 64408 | 62339 and 63402 | 61350 and 61820 | –
SEQIDNO11: synthesised peptide identified in the 10 kDa blood fraction after acupuncture; sequence not printed in the text (TLAGENQTALEIEELNRK; Derived from human blood sample) | 66600 and 67446 | 67045 and 66528 | 66568 and 64759 | 64371 and 65373 | 65587 and 66707 | 64433 and 65703 | 65114 and 72373 | 65947 and 68983 | 64058 and 64030 | 63837 and 64861 | 60430 and 65118 | 60886 and 63795 | 61976 and 62453 | 61546 and 64267 | 62448 and 60200 | 62557 and 63900 | 62018 and 64649 | 63935 and 65696 | –
c1ccc2c(c1)cc1ccc3cccc4ccc2c1c34 [BaP, Benzo[a]pyrene, reference compound] | – | – | – | – | – | – | – | – | – | – | – | – | – | – | – | – | – | – | effect on proliferation (in words) ([1]; 24 hours incubation): insufficient to decrease the proliferation; effect on proliferation (in words) ([3]; 24 hours incubation): insufficient to decrease the proliferation
SEQIDNO10: synthesised peptide identified in the 10 kDa blood fraction after acupuncture; sequence not printed in the text (GGVLSPADKTNVK; Derived from human blood sample) | 74950 and 67668 | 70143 and 70096 | 68926 and 71006 | 68674 and 69541 | 67904 and 70174 | 64358 and 65678 | 66888 and 71581 | 67041 and 68134 | 68442 and 69458 | 67343 and 65315 | 62238 and 64184 | 62410 and 63264 | 58905 and 62040 | 62235 and 61799 | 61232 and 61422 | 61576 and 62488 | 62058 and 61865 | 63213 and 64672 | –
CC/C(=C(\c1ccccc1)c1ccc(OCCN(C)C)cc1)c1ccccc1 [Tamoxifen, reference compound] | – | – | – | – | – | – | – | – | – | – | – | – | – | – | – | – | – | – | effect on proliferation (in words) ([2]; 24 hours incubation): insufficient to decrease the proliferation
